For orientation: pIC50 means the negative decadic logarithm of the IC50, by convention in mol/L. Lower therefore signals a large IC50.

Each structure is given as a SMILES string. pIC50: −log10 of the molar value. Where only a bound is given, the exact number is not on record here.

The target in this experiment is Human thrombin (Homo sapiens (Human), UniProt P00734). Description: Thrombin protease activity inhibition assay (chromogenic substrate S-2238). Type of experiment: biochemical. Conditions: 3 nM thrombin, 125 μM S-2238, 10 min pre-incubation, RT. The protocol:
The thrombin activity reported herein (e.g., Table A) was obtained as follows. […] Thrombin was assayed in buffer containing 0.05 M Tris (pH 7.4), 0.015 M NaCl and 0.01% PEG-8000. The final concentration of enzyme used was 3 nM thrombin. […] All assays were performed in 96-well microtiter plates at room temperature (RT). […] Inhibitor IC50 values were determined by adding test compound as ten point, three-fold serial dilutions in buffer solution, as known in the art. The plate was read at 10 minutes after substrate addition. The IC50 was calculated by plotting the percent (%) inhibition against compound concentration and fitting the data to a constrained four parameter sigmoidal curve, as known in the art.
For the compound `CC(C)(C)C(=O)n1nc(-c2cccn(Cc3ccoc3)c2=O)cc1NCc1ccc(Cl)s1` [Cmpd 78, 3-(5-[(5-chlorothiophen-2-yl)methyl]amino-1-(2,2-dimethylpropanoyl)-1H-pyrazol-3-yl)-1-(furan-3-ylmethyl)-1,2-dihydropyridin-2-one], the pIC50 is greater than 7.00. For `CC(C)(C)C(=O)n1nc(-c2cccn(Cc3cccc4ccccc34)c2=O)cc1NCc1ccc(Cl)s1` [Cmpd 79, 3-(5-[(5-chlorothiophen-2-yl)methyl]amino-1-(2,2-dimethylpropanoyl)-1H-pyrazol-3-yl)-1-(naphthalen-1-ylmethyl)-1,2-dihydropyridin-2-one], the negative logarithm of the IC50 (pIC50) is greater than 7.00. The figure for `CC(C)(C)C(=O)n1nc(-c2cccn(Cc3ccc4ccccc4c3)c2=O)cc1NCc1ccc(Cl)s1` [Cmpd 80, 3-(5-[(5-chlorothiophen-2-yl)methyl]amino-1-(2,2-dimethylpropanoyl)-1H-pyrazol-3-yl)-1-(naphthalen-2-ylmethyl)-1,2-dihydropyridin-2-one] is greater than 7.00; for `CC(C)(C)C(=O)n1nc(-c2cccn(Cc3ccccn3)c2=O)cc1NCc1ccc(Cl)s1` [Cmpd 82, 3-(5-[(5-chlorothiophen-2-yl)methyl]amino-1-(2,2-dimethylpropanoyl)-1H-pyrazol-3-yl)-1-(pyridin-2-ylmethyl)-1,2-dihydropyridin-2-one] it is greater than 7.00. The value for `CC(C)(C)C(=O)n1nc(-c2cccn(Cc3cccnc3)c2=O)cc1NCc1ccc(Cl)s1` [Cmpd 83, 3-(5-[(5-chlorothiophen-2-yl)methyl]amino-1-(2,2-dimethylpropanoyl)-1H-pyrazol-3-yl)-1-(pyridin-3-ylmethyl)-1,2-dihydropyridin-2-one] was greater than 7.00; that for `CC(C)(C)C(=O)n1nc(-c2cccn(Cc3ccncc3)c2=O)cc1NCc1ccc(Cl)s1` [Cmpd 84, 3-(5-[(5-chlorothiophen-2-yl)methyl]amino-1-(2,2-dimethylpropanoyl)-1H-pyrazol-3-yl)-1-(pyridin-4-ylmethyl)-1,2-dihydropyridin-2-one] was greater than 7.00. The value for `CC(C)(C)C(=O)n1nc(-c2cccn(Cc3ncccn3)c2=O)cc1NCc1ccc(Cl)s1` [Cmpd 85, 3-(5-[(5-chlorothiophen-2-yl)methyl]amino-1-(2,2-dimethylpropanoyl)-1H-pyrazol-3-yl)-1-(pyrimidin-2-ylmethyl)-1,2-dihydropyridin-2-one] was greater than 7.00. Turning to `CC(C)(C)C(=O)n1nc(-c2cccn(Cc3cccs3)c2=O)cc1NCc1ccc(Cl)s1` [Cmpd 86, 3-(5-[(5-chlorothiophen-2-yl)methyl]amino-1-(2,2-dimethylpropanoyl)-1H-pyrazol-3-yl)-1-(thiophen-2-ylmethyl)-1,2-dihydropyridin-2-one], the pIC50 is greater than 7.00. The value for `CC(C)(C)C(=O)n1nc(-c2cccn(Cc3ccsc3)c2=O)cc1NCc1ccc(Cl)s1` [Cmpd 87, 3-(5-[(5-chlorothiophen-2-yl)methyl]amino-1-(2,2-dimethylpropanoyl)-1H-pyrazol-3-yl)-1-(thiophen-3-ylmethyl)-1,2-dihydropyridin-2-one] was greater than 7.00. The compound `CC(C)(C)C(=O)n1nc(-c2cccn(CC(=O)N3CCOCC3)c2=O)cc1NCc1ccc(Cl)s1` [Cmpd 88, 3-(5-[(5-chlorothiophen-2-yl)methyl]amino-1-(2,2-dimethylpropanoyl)-1H-pyrazol-3-yl)-1-[2-(morpholin-4-yl)-2-oxoethyl]-1,2-dihydropyridin-2-one] gave a negative logarithm of the IC50 (pIC50) greater than 7.00. The value for `CC(C)(C)C(=O)n1nc(-c2cccn(CCN3CCOCC3)c2=O)cc1NCc1ccc(Cl)s1` [Cmpd 89, 3-(5-[(5-chlorothiophen-2-yl)methyl]amino-1-(2,2-dimethylpropanoyl)-1H-pyrazol-3-yl)-1-[2-(morpholin-4-yl)ethyl]-1,2-dihydropyridin-2-one] was greater than 7.00; that for `Cn1cccc(-c2cc(NCc3ccc(Cl)s3)n(C(=O)C(C)(C)C)n2)c1=O` [Cmpd 90, 3-(5-[(5-chlorothiophen-2-yl)methyl]amino-1-(2,2-dimethylpropanoyl)-1H-pyrazol-3-yl)-1-methyl-1,2-dihydropyridin-2-one] was greater than 7.00. The value for `CC(C)(CO)C(=O)n1nc(-c2ccc[nH]c2=O)cc1NCc1ccc(Cl)s1` [Cmpd 91, 3-(5-[(5-chlorothiophen-2-yl)methyl]amino-1-(3-hydroxy-2,2-dimethylpropanoyl)-1H-pyrazol-3-yl)-1,2-dihydropyridin-2-one] was greater than 7.00. The figure for `CC(C)(CO)C(=O)n1nc(-c2cccn(Cc3cccs3)c2=O)cc1NCc1ccc(Cl)s1` [Cmpd 95, 3-(5-[(5-chlorothiophen-2-yl)methyl]amino-1-(3-hydroxy-2,2-dimethylpropanoyl)-1H-pyrazol-3-yl)-1-(thiophen-2-ylmethyl)-1,2-dihydropyridin-2-one] is greater than 7.00; for `COCC(C)(C)C(=O)n1nc(-c2ccc[nH]c2=O)cc1NCc1ccc(Cl)s1` [Cmpd 96, 3-(5-[(5-chlorothiophen-2-yl)methyl]amino-1-(3-methoxy-2,2-dimethylpropanoyl)-1H-pyrazol-3-yl)-1,2-dihydropyridin-2-one] it is greater than 7.00; for `COCC(C)(C)C(=O)n1nc(-c2cccn(Cc3ccoc3)c2=O)cc1NCc1ccc(Cl)s1` [Cmpd 99, 3-(5-[(5-chlorothiophen-2-yl)methyl]amino-1-(3-methoxy-2,2-dimethylpropanoyl)-1H-pyrazol-3-yl)-1-(furan-3-ylmethyl)-1,2-dihydropyridin-2-one] it is greater than 7.00. For `COCC(C)(C)C(=O)n1nc(-c2cccn(CCN3CCOCC3)c2=O)cc1NCc1ccc(Cl)s1` [Cmpd 107, 3-(5-[(5-chlorothiophen-2-yl)methyl]amino-1-(3-methoxy-2,2-dimethylpropanoyl)-1H-pyrazol-3-yl)-1-[2-(morpholin-4-yl)ethyl]-1,2-dihydropyridin-2-one], the pIC50 was greater than 7.00.

`O=C(c1cccc2c1OCCO2)n1nc(-c2ccc[nH]c2=O)cc1NCc1ccc(Cl)s1` [Cmpd 108, 3-(5-[(5-chlorothiophen-2-yl)methyl]amino-1-[(2,3-dihydro-1,4-benzodioxin-5-yl)carbonyl]-1H-pyrazol-3-yl)-1,2-dihydropyridin-2-one] had a negative logarithm of the IC50 (pIC50) greater than 7.00.

Turning to `O=C(c1cccc2c1OCCO2)n1nc(-c2cccn(Cc3ccco3)c2=O)cc1NCc1ccc(Cl)s1` [Cmpd 110, 3-(5-[(5-chlorothiophen-2-yl)methyl]amino-1-[(2,3-dihydro-1,4-benzodioxin-5-yl)carbonyl]-1H-pyrazol-3-yl)-1-(furan-2-ylmethyl)-1,2-dihydropyridin-2-one], the pIC50 was greater than 7.00. The figure for `O=C(c1cccc2c1OCCO2)n1nc(-c2cccn(Cc3ccoc3)c2=O)cc1NCc1ccc(Cl)s1` [Cmpd 111, 3-(5-[(5-chlorothiophen-2-yl)methyl]amino-1-[(2,3-dihydro-1,4-benzodioxin-5-yl)carbonyl]-1H-pyrazol-3-yl)-1-(furan-3-ylmethyl)-1,2-dihydropyridin-2-one] is greater than 7.00. The figure for `O=C(c1cccc2c1OCCO2)n1nc(-c2cccn(Cc3cccnn3)c2=O)cc1NCc1ccc(Cl)s1` [Cmpd 112, 3-(5-[(5-chlorothiophen-2-yl)methyl]amino-1-[(2,3-dihydro-1,4-benzodioxin-5-yl)carbonyl]-1H-pyrazol-3-yl)-1-(pyridazin-3-ylmethyl)-1,2-dihydropyridin-2-one] is greater than 7.00; for `O=C(c1cccc2c1OCCO2)n1nc(-c2cccn(Cc3cccnc3)c2=O)cc1NCc1ccc(Cl)s1` [Cmpd 114, 3-(5-[(5-chlorothiophen-2-yl)methyl]amino-1-[(2,3-dihydro-1,4-benzodioxin-5-yl)carbonyl]-1H-pyrazol-3-yl)-1-(pyridin-3-ylmethyl)-1,2-dihydropyridin-2-one] it is greater than 7.00. The figure for `O=C(c1cccc2c1OCCO2)n1nc(-c2cccn(Cc3ccncc3)c2=O)cc1NCc1ccc(Cl)s1` [Cmpd 115, 3-(5-[(5-chlorothiophen-2-yl)methyl]amino-1-[(2,3-dihydro-1,4-benzodioxin-5-yl)carbonyl]-1H-pyrazol-3-yl)-1-(pyridin-4-ylmethyl)-1,2-dihydropyridin-2-one] is greater than 7.00; for `O=C(c1cccc2c1OCCO2)n1nc(-c2cccn(Cc3ccsc3)c2=O)cc1NCc1ccc(Cl)s1` [Cmpd 118, 3-(5-[(5-chlorothiophen-2-yl)methyl]amino-1-[(2,3-dihydro-1,4-benzodioxin-5-yl)carbonyl]-1H-pyrazol-3-yl)-1-(thiophen-3-ylmethyl)-1,2-dihydropyridin-2-one] it is greater than 7.00; for `O=C(c1cccc2c1OCCO2)n1nc(-c2cccn(CCN3CCOCC3)c2=O)cc1NCc1ccc(Cl)s1` [Cmpd 119, 3-(5-[(5-chlorothiophen-2-yl)methyl]amino-1-[(2,3-dihydro-1,4-benzodioxin-5-yl)carbonyl]-1H-pyrazol-3-yl)-1-[2-(morpholin-4-yl)ethyl]-1,2-dihydropyridin-2-one] it is greater than 7.00. Compound `Cn1cccc(-c2cc(NCc3ccc(Cl)s3)n(C(=O)c3cccc4c3OCCO4)n2)c1=O` [Cmpd 120, 3-(5-[(5-chlorothiophen-2-yl)methyl]amino-1-[(2,3-dihydro-1,4-benzodioxin-5-yl)carbonyl]-1H-pyrazol-3-yl)-1-methyl-1,2-dihydropyridin-2-one] had a pIC50 greater than 7.00.

For `COc1ccc(C(=O)n2nc(-c3ccc[nH]c3=O)cc2NCc2ccc(Cl)s2)c(OC)c1` [Cmpd 121, 3-(5-[(5-chlorothiophen-2-yl)methyl]amino-1-[(2,4-dimethoxyphenyl)carbonyl]-1H-pyrazol-3-yl)-1,2-dihydropyridin-2-one], the negative logarithm of the IC50 (pIC50) was greater than 7.00.

These data come from US9687479B2, “Multisubstituted aromatic compounds as serine protease inhibitors” (VERSEON CORPORATION, priority 2013, dated 2017).
